Measurements published in US6784283B2, “Peptide antibiotics” (The University of British Columbia, priority 2000, dated 2004).
Starred links: 1 amine or outer side, 2 acyl side, 3 side chain; linkers in the order of their positions; H or OH if unused. Non-standard residues stand in square brackets, D forms with d. Residues, ends and D or L forms follow the SMILES beside them. *: point of attachment. Pentanoyl(2S-OH,3S-Me) = CC[C@H](C)[C@H](O)C(=O)*; X1 = C/C=C(/N[*:1])C(=O)[*:2]; dOrn = NCCC[C@@H](N)C(=O)O; Valol = CC(C)[C@@H](CO)N*

Columns and labels:
[1] = tested on: Drug Resistant Pseudomonas aeruginosa; settings: other target organisms tested (Drug Resistant Pseudomonas aeruginosa); agar dilution
Procedure: (§1) A solution of Bogorol A was prepared by dissolving 3 mg of e compound in 300 μL of dimethylsulfoxide (DMSO). Serial two-fold dilutions were prepared in DMSO, and 50 μL of each dilution was mixed with 5 mL of melted Mueller-Hinton agar to achieve a final Bogorol A concentration range of 200 to 0.48 μg/ml. After the agar solidified, standardized suspensions of the target organisms were inoculated onto the surface of the agar using a multipoint inoculator. The standardized suspensions were prepared in tryptic soy broth adjusted to a 1.0 McFarland turbidity standard. The plates were incubated over night at 37° C. Activity of Bogorol A was indicated by a lack of growth of any target organism at its point of inoculation.

[2] = tested on: vancomycin-resistant Enterococcus faecalis; settings: agar dilution
Procedure: as §1

Escherichia coli = settings: agar dilution
Procedure: as §1

Berkholderia cepacia = settings: other target organisms tested (Berkholderia cepacia); agar dilution
Procedure: as §1

[3] = tested on: Stenotrophomonas maltophilia; settings: agar dilution
Procedure: as §1

Candida aibicans = settings: other target organisms tested (Candida aibicans); agar dilution
Procedure: as §1

[4] = tested on: methicillin-resistant Staphylococcus aureus; assay: agar dilution antimicrobial assay (MIC); format: cell-based
Procedure: as §1

C/C=C(/NC(=O)[C@@H](O)[C@@H](C)CC)C(=O)N[C@@H](CC(C)C)C(=O)N[C@H](CCCN)C(=O)N[C@H](C(=O)N[C@H](C(=O)N[C@H](C(=O)N[C@H](CCCCN)C(=O)N[C@H](C(=O)N[C@@H](CC(C)C)C(=O)N[C@@H](CCCCN)C(=O)N[C@H](Cc1ccc(O)cc1)C(=O)N[C@H](CC(C)C)C(=O)N[C@H](CO)C(C)C)C(C)C)C(C)C)C(C)C)[C@@H](C)CC [Bogorol A] ({Pentanoyl(2S-OH,3S-Me)}-[X1]L[dOrn]IVV[dK]VLK[dY][dL]-Valol)
antimicrobial activity (in words) [1]: essentially inactive | antimicrobial activity (in words) [2]: active | antimicrobial activity (in words) (Escherichia coli): moderately active | antimicrobial activity (in words) (Berkholderia cepacia): essentially inactive | antimicrobial activity (in words) [3]: moderately active | antimicrobial activity (in words) (Candida aibicans): essentially inactive | antimicrobial activity (in words) [4]: active
